Publication PMC4278837, “A Cyclic Peptidic Serine Protease Inhibitor: Increasing Affinity by Increasing Peptide Flexibility” (PLoS ONE, 2014)
Square brackets hold non-standard residues; d marks the D form. Peptide text beside a SMILES is read from it. * marks the point of attachment. pNA = O=[N+]([O-])c1ccc(N*)cc1; pGlu = O=C1CC[C@@H](C(=O)O)N1

Columns and labels:
Conditions in all cases: 37°C, HBS with 0.1% BSA
muPA wt = biological target: T1, muPA wt (Mus musculus, UniProt P06869); test: KM for S-2444 hydrolysis by muPA wt; format: biochemical, murine
T1 construct: To ensure that the uPAs purified from the conditioned media were completely in the two-chain form, they were treated with plasmin; hexa-His (C); made in house; host or cells: HEK293 6E suspension cells
T1 sequence (P06869 180-433 limits assumed): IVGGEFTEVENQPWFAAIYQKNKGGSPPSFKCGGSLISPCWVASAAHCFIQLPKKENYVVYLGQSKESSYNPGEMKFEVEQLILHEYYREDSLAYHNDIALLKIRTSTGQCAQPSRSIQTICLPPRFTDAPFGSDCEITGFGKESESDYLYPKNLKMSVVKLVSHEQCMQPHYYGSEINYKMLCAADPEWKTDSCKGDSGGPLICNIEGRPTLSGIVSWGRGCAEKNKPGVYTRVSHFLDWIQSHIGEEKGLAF
T1 sequence (P06869 21-178 partner limits assumed): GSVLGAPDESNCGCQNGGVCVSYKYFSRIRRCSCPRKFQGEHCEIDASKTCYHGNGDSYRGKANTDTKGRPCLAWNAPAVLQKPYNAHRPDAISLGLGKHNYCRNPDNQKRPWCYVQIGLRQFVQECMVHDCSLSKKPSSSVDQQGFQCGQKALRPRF
Method: (§1) Determination of K M values
(§2) To determine the K M values for hydrolysis of S-2444 (pyro-Glu-Gly-Arg-p-nitroanilide) by the different uPA variants used in the present study, a 200 µL 2-fold dilution series of the substrate (4 - 0 mM for huPA variants, 24 – 0 mM for muPA variants) in a buffer of 10 mM HEPES, pH 7.4, 140 mM NaCl (HEPES-buffered saline, HBS), with 0.1% bovine serum albumin (BSA), was incubated 2 min at 37°C, prior to the addition of a fixed concentration of each protease (approximaterly 2 nM final concentration). The initial reaction velocities (V i), monitored as the changes in absorbance at 405 nm, were plotted against the initial substrate concentration ([S]) and non-linear regression analysis was used to determine the K M according to equation 1: […]
(§3) The K M values for hydrolysis of S-2444 by the uPA variants employed in the present study are listed in S2 Table.

muPA K41A = biological target: T2, muPA K41A (Mus musculus, UniProt P06869, K210A); test: KM for S-2444 hydrolysis by muPA K41A; format: biochemical, murine
T2 construct: To ensure that the uPAs purified from the conditioned media were completely in the two-chain form, they were treated with plasmin; hexa-His (C); made in house; host or cells: HEK293 6E suspension cells
T2 sequence (P06869 180-433 K210A): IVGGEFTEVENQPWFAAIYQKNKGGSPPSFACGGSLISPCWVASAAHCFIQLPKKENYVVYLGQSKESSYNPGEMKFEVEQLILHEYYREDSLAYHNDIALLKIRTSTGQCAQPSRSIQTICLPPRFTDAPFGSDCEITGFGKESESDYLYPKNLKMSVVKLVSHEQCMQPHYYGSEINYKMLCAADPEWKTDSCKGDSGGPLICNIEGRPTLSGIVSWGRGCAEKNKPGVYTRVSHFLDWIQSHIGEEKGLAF
T2 sequence (P06869 21-178 partner limits assumed): as the sequence (P06869 21-178 partner limits assumed) above
Method: as §1, §2, §3

muPA Y99A = biological target: T3, muPA Y99A (Mus musculus, UniProt P06869, Y274A); test: KM for S-2444 hydrolysis by muPA Y99A; format: biochemical, murine
T3 construct: To ensure that the uPAs purified from the conditioned media were completely in the two-chain form, they were treated with plasmin; hexa-His (C); made in house; host or cells: HEK293 6E suspension cells
T3 sequence (P06869 180-433 Y274A): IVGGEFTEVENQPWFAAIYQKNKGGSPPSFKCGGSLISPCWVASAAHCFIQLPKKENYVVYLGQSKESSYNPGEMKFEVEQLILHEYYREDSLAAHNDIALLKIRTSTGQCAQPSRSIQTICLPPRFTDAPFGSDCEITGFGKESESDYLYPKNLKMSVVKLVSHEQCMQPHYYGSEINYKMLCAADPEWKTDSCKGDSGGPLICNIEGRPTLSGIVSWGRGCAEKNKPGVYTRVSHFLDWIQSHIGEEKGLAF
T3 sequence (P06869 21-178 partner limits assumed): as the sequence (P06869 21-178 partner limits assumed) above
Method: as §1, §2, §3

muPA K143A = biological target: T4, muPA K143A (Mus musculus, UniProt P06869, K322A); test: KM for S-2444 hydrolysis by muPA K143A; format: biochemical, murine
T4 construct: To ensure that the uPAs purified from the conditioned media were completely in the two-chain form, they were treated with plasmin; hexa-His (C); made in house; host or cells: HEK293 6E suspension cells
T4 sequence (P06869 180-433 K322A): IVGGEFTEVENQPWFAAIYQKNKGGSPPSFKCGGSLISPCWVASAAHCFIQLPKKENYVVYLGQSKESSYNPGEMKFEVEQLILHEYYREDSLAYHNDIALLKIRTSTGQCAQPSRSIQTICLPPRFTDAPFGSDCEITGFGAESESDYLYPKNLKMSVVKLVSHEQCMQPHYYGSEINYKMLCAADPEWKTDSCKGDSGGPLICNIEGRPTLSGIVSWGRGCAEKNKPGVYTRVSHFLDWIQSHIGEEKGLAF
T4 sequence (P06869 21-178 partner limits assumed): as the sequence (P06869 21-178 partner limits assumed) above
Method: as §1, §2, §3

muPA S190A = biological target: T5, muPA S190A (Mus musculus, UniProt P06869, S373A); test: KM for S-2444 hydrolysis by muPA S190A; format: biochemical, murine
T5 construct: To ensure that the uPAs purified from the conditioned media were completely in the two-chain form, they were treated with plasmin; hexa-His (C); made in house; host or cells: HEK293 6E suspension cells
T5 sequence (P06869 180-433 S373A): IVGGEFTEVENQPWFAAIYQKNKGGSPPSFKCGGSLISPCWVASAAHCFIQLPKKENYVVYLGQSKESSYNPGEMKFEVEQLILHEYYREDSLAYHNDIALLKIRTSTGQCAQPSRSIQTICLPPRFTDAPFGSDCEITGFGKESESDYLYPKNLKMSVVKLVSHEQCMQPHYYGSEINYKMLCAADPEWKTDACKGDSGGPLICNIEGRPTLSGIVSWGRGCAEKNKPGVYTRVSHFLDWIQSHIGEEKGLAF
T5 sequence (P06869 21-178 partner limits assumed): as the sequence (P06869 21-178 partner limits assumed) above
Method: as §1, §2, §3

muPA V213T = biological target: T6, muPA V213T (Mus musculus, UniProt P06869, V396T); test: KM for S-2444 hydrolysis by muPA V213T; format: biochemical, murine
T6 construct: To ensure that the uPAs purified from the conditioned media were completely in the two-chain form, they were treated with plasmin; hexa-His (C); made in house; host or cells: HEK293 6E suspension cells
T6 sequence (P06869 180-433 V396T): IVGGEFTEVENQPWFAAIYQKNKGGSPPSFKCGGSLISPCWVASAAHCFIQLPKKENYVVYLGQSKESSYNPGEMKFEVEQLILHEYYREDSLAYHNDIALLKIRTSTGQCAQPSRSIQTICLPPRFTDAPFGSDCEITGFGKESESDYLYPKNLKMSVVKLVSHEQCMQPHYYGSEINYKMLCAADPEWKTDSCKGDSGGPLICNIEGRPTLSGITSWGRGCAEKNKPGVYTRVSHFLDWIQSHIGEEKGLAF
T6 sequence (P06869 21-178 partner limits assumed): as the sequence (P06869 21-178 partner limits assumed) above
Method: as §1, §2, §3

huPA wt = biological target: T7, huPA wt (Homo sapiens, UniProt P00749); test: KM for S-2444 hydrolysis by huPA wt; format: biochemical
T7 construct: To ensure that the uPAs purified from the conditioned media were completely in the two-chain form, they were treated with plasmin; hexa-His (C); made in house; host or cells: HEK293 6E suspension cells
Method: as §1, §2, §3

huPA-H99Y = biological target: T8, huPA-H99Y (Homo sapiens, UniProt P00749, H272Y); test: KM for S-2444 hydrolysis by huPA-H99Y; format: biochemical
T8 construct: To ensure that the uPAs purified from the conditioned media were completely in the two-chain form, they were treated with plasmin; hexa-His (C); made in house; host or cells: HEK293 6E suspension cells
Method: as §1, §2, §3

huPA-H99Y R35A = biological target: T9, huPA-H99Y R35A (Homo sapiens, UniProt P00749, H272Y/R198A); test: KM for S-2444 hydrolysis by huPA-H99Y R35A; format: biochemical
T9 construct: To ensure that the uPAs purified from the conditioned media were completely in the two-chain form, they were treated with plasmin; hexa-His (C); made in house; host or cells: HEK293 6E suspension cells
Method: as §1, §2, §3

huPA-H99Y V41A = biological target: T10, huPA-H99Y V41A (Homo sapiens, UniProt P00749, H272Y/V208A); test: KM for S-2444 hydrolysis by huPA-H99Y V41A; format: biochemical
T10 construct: To ensure that the uPAs purified from the conditioned media were completely in the two-chain form, they were treated with plasmin; hexa-His (C); made in house; host or cells: HEK293 6E suspension cells
Method: as §1, §2, §3

huPA-H99Y K143A = biological target: T11, huPA-H99Y K143A (Homo sapiens, UniProt P00749, H272Y/K320A); test: KM for S-2444 hydrolysis by huPA-H99Y K143A; format: biochemical
T11 construct: To ensure that the uPAs purified from the conditioned media were completely in the two-chain form, they were treated with plasmin; hexa-His (C); made in house; host or cells: HEK293 6E suspension cells
Method: as §1, §2, §3

huPA-H99Y Q192A = huPA-H99Y Q192A (Homo sapiens, UniProt P00749, H272Y/Q373A); test: KM for S-2444 hydrolysis by huPA-H99Y Q192A; format: biochemical; set-up: hexa-His (C); made in house; host or cells: HEK293 6E suspension cells
Method: as §1, §2, §3

Km (muPA wt): 2400 ± 200 µM | Km (muPA K41A): 2500 ± 200 µM | Km (muPA Y99A): 3600 ± 300 µM | Km (muPA K143A): 1000 ± 400 µM | Km (muPA S190A): 10800 ± 1000 µM | Km (muPA V213T): 868 ± 350 µM | Km (huPA wt): 87 ± 0.3 µM | Km (huPA-H99Y): 610 ± 110 µM | Km (huPA-H99Y R35A): 517 ± 156 µM | Km (huPA-H99Y V41A): 742 ± 73 µM | Km (huPA-H99Y K143A): 500 ± 41 µM | Km (huPA-H99Y Q192A): 904 ± 178 µM
SMILES: NC(N)=NCCC[C@H](NC(=O)CNC(=O)[C@@H]1CCC(=O)N1)C(=O)Nc1ccc([N+](=O)[O-])cc1 [S-2444, pyro-Glu-Gly-Arg-p-nitroanilide] ([pGlu]-Gly-Arg-pNA)
